The text below walks through data of patent US8455665B2, “3-phenoxymethylpyrrolidine compounds” (Theravance, Inc., priority 2009, dated 2013).

Marks after values point to notes of the source that are not given here.

Experiment [1] concerns the target T1, SERT (Homo sapiens, UniProt P31645). Kind of experiment: hSERT membrane radioligand binding assay (3H-citalopram). Set-up: expressed in transfected cells; host or cells: HEK-293. Particulars: hSERT membranes (HEK-293), 1.0 nM 3H-citalopram; for Ki: read-out: SERT pKi (converted). The method, then: (§1) Membrane radioligand binding assays were used to measure inhibition of labeled ligand (^3H-citalopram or ^3H-nisoxetine or ^3H-WIN35428) binding to membranes prepared from cells expressing the respective human recombinant transporter (hSERT or hNET or hDAT) in order to determine the pKi values of test compounds at the transporters.
(§2) Recombinant human embryonic kidney (HEK-293) derived cell lines stably transfected with hSERT or hNET, respectively, were grown in DMEM medium supplemented with 10% dialyzed FBS (for hSERT) or FBS (for hNET), 100 μg/ml penicillin, 100 μg/ml streptomycin, 2 mM L-glutamine and 250 μg/ml of the aminoglycoside antibiotic G418, in a 5% CO2 humidified incubator at 37° C. When cultures reached 80% confluence, the cells were washed thoroughly in PBS (without Ca^2+ and Mg^2+) and lifted with 5 mM EDTA in PBS. Cells were pelleted by centrifugation, resuspended in lysis buffer (10 mM Tris-HCl, pH7.5 containing 1 mM EDTA), homogenized, pelleted by centrifugation, then resuspended in 50 mM Tris-HCl, pH 7.5 and 10% sucrose at 4° C. Protein concentration of the membrane suspension was determined using a Bio-Rad Bradford Protein Assay kit. Membranes were snap frozen and stored at −80° C. Chinese hamster ovary membranes expressing hDAT (CHO-DAT) were purchased from PerkinElmer and stored at −80° C.
(§3) Binding assays were performed in a 96-well assay plate in a total volume of 200 μl assay buffer (50 mM Tris-HCl, 120 mM NaCl, 5 mM KCl, pH 7.4) with 0.5, 1, and 3 μg membrane protein, for SERT, NET and DAT, respectively.
(§4) Stock solutions (10 mM in DMSO) of test compound were prepared and serial dilutions made using Dilution Buffer (50 mM Tris-HCl, 120 mM NaCl, 5 mM KCl, pH 7.4, 0.1% BSA, 400 μM ascorbic acid). Non-specific radioligand binding was determined in the presence of 1 μM duloxetine, 1 μM desipramine or 10 μM GBR12909 (each in Dilution Buffer) for the hSERT, hNET or hDAT assays, respectively.
(§5) Following a 60 minute incubation at 22° C. (or a period sufficient to reach equilibrium), the membranes were harvested by rapid filtration over a 96-well UniFilter GF/B plate, pretreated with 0.3% polyethyleneimine, and washed 6 times with […] (50 mM Tris-HCl, 0.9% NaCl, pH 7.5 at 4° C.). Plates were dried overnight at room temperature, approximately […] of MicroScint™-20 (Perkin Elmer) added and bound radioactivity quantitated via liquid scintillation spectroscopy. Inhibition curves and saturation isotherms were analyzed using GraphPad Prism Software package (GraphPad Software, Inc., San Diego, Calif.). IC50 values were generated from concentration response curves using the Sigmoidal Dose Response (variable slope) algorithm in Prism GraphPad. Kd and Bmax values for the radioligand were generated from saturation isotherms using the Saturation Binding Global Fit algorithm in Prism GraphPad. pKi (negative decadic logarithm of Ki) values for test compounds were calculated from the best-fit IC50 values, and the Kd value of the radioligand, using the Cheng-Prusoff equation (Cheng & Prusoff (1973) Biochem. Pharmacol. 22(23):3099-3108): Ki=IC50/(1+[L]/Kd), where [L]=concentration radioligand.
Target sequence in this assay (P31645 whole entry): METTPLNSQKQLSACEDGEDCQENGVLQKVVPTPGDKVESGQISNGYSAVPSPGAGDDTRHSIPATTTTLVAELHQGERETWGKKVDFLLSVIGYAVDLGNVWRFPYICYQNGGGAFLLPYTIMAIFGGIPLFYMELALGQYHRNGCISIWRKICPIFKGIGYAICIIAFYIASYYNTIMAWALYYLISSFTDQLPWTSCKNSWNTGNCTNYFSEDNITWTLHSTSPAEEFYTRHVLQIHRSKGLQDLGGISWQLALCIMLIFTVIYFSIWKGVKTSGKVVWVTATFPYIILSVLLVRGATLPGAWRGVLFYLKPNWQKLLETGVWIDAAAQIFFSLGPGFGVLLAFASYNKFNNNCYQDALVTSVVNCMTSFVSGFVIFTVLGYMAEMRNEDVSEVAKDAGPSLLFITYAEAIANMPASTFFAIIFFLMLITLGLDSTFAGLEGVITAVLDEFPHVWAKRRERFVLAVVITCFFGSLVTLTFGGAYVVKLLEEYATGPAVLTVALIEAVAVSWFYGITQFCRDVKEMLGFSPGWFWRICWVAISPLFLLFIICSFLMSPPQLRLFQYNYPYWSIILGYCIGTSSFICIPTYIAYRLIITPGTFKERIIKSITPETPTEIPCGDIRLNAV

For experiment [2], the target named is T2, NET (Homo sapiens, UniProt P23975). Nature of the experiment: hNET membrane radioligand binding assay (3H-nisoxetine). More on the design: expressed in transfected cells; host or cells: HEK-293. Particulars: hNET membranes (HEK-293), 1.0 nM 3H-nisoxetine; read-out: NET pKi (converted). On the procedure:
as §1, §2, §3, §4, §5

Experiment [3] addresses T1, SERT. Nature of the experiment: fluorescence-based serotonin uptake assay (Tsuruda et al. 2010). In kind it is cell-based. Particulars: serotonin reuptake inhibition, fluorescence-based assay (data indicated by an asterisk); for IC50: read-out: SERT pIC50 (converted).
Target sequence in this assay (P31645 whole entry, species assumed): as the sequence (P31645 whole entry) above
Experiment [4] has as its target T2, NET. Nature of the experiment: fluorescence-based norepinephrine uptake assay (Tsuruda et al. 2010). It is filed as cell-based. The settings on record: norepinephrine reuptake inhibition, fluorescence-based assay (data indicated by an asterisk); read-out: NET pIC50 (converted).

T2 sequence (P23975 whole entry): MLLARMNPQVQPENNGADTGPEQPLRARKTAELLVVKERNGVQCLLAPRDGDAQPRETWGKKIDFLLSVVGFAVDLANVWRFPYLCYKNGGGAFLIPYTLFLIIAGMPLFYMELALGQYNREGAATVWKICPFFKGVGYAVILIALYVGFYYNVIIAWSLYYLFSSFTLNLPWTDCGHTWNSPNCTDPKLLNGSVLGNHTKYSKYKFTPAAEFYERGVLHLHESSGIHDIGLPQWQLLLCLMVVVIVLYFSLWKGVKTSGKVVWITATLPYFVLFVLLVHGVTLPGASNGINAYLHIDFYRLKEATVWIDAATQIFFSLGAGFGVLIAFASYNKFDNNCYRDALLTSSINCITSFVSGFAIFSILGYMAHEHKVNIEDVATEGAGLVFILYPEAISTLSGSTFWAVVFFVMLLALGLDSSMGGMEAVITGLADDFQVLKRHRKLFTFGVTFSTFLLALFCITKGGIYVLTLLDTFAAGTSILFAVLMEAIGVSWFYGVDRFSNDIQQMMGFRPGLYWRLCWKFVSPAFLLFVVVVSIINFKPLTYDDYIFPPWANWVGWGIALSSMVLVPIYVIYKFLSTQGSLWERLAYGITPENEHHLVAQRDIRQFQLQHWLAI

`Clc1ccccc1O[C@H](C1CCOCC1)[C@@H]1CCNC1` [Example 13-2, (R)-3-[(R)-(2-Chlorophenoxy)(tetrahydropyran-4-yl)methyl]pyrrolidine]: the Ki was no more than 100 nM in experiment [1] and no more than 10 nM in experiment [2].
With `COC[C@H](Oc1c(Cl)cccc1Cl)[C@H]1CCNC1` [Example 4-28, (S)-3-[(R)-1-(2,6-Dichlorophenoxy)-2-methoxyethyl]pyrrolidine], the Ki in experiment [1] is no more than 100 nM; in experiment [2] it was no more than 10 nM.
Regarding `FC(F)(F)c1c(Cl)cccc1O[C@@H](C1CCOCC1)[C@@H]1CCNC1` [Example 13-21, (R)-3-[(S)-(3-Chloro-2-trifluoromethylphenoxy)(tetrahydropyran-4-yl)-methyl]-pyrrolidine], the Ki in experiment [1] was no more than 10 nM; in experiment [2], no more than 100 nM.
With `COC[C@H](Oc1cccc(Cl)c1C)[C@@H]1CCNC1` [Example 4-17, (R)-3-[(R)-1-(3-Chloro-2-methylphenoxy)-2-methoxyethyl]pyrrolidine], the results for the Ki in experiment [1] and in experiment [2] were no more than 10 nM and no more than 100 nM, respectively.
Regarding `Clc1cccc(Cl)c1O[C@H](C1CCOCC1)[C@@H]1CCNC1` [Example 13-26, (R)-3-[(R)-(2,6-Dichlorophenoxy)(tetrahydropyran-4-yl)methyl]pyrrolidine], the Ki is no more than 100 nM in experiment [1] and no more than 10 nM in experiment [2].
Take `COC[C@H](Oc1cccc(Cl)c1Cl)[C@@H]1CCNC1` [Example 4-8, (R)-3-[(R)-1-(2,3-Dichlorophenoxy)-2-methoxyethyl]pyrrolidine]: the Ki was no more than 10 nM in experiment [1] and no more than 100 nM in experiment [2].
Regarding `COC[C@@H](Oc1c(Cl)cccc1Cl)[C@H]1CCNC1` [Example 4-27, (S)-3-[(S)-1-(2,6-Dichlorophenoxy)-2-methoxyethyl]pyrrolidine], the Ki in experiment [1] and in experiment [2] was no more than 100 nM each time.
As for `COCC(Oc1ccccc1Cl)C1CCNC1` (single isomer, unassigned) [Example 4-1, 3-[1-(2-Chlorophenoxy)-2-methoxyethyl]pyrrolidine], the Ki in experiment [1] and in experiment [2] was no more than 100 nM each time.
Take `Clc1cccc(Cl)c1O[C@@H](C1CCOCC1)[C@@H]1CCNC1` [Example 13-27, (R)-3-[(S)-(2,6-Dichlorophenoxy)(tetrahydropyran-4-yl)methyl]pyrrolidine]: the figures for the Ki in experiment [1] and in experiment [2] were no more than 100 nM and no more than 10 nM, respectively.
Take `CSCCC(Oc1cccc(Cl)c1Cl)C1CCNC1` (mixture of isomers) [Example 20, 3-[1-(2,3-Dichlorophenoxy)-3-methylsulfanylpropyl]pyrrolidine]: the Ki in experiment [1] and in experiment [2] was no more than 10 nM in each case.
Regarding `Fc1cccc(O[C@H](C2CCOCC2)[C@@H]2CCNC2)c1` [Example 13-6, (R)-3-[(R)-(3-Fluorophenoxy)(tetrahydropyran-4-yl)methyl]pyrrolidine], the Ki is no more than 100 nM in experiment [1] and no more than 10 nM in experiment [2].
For the compound `COC[C@H](Oc1cccc(F)c1Cl)[C@H]1CCNC1` [Example 4-12, (S)-3-[(R)-1-(2-Chloro-3-fluorophenoxy)-2-methoxyethyl]pyrrolidine], the figures for the Ki in experiment [1] and in experiment [2] were no more than 100 nM and no more than 10 nM, respectively.
On to `FC(F)(F)c1cccc(O[C@H](C2CCOCC2)[C@@H]2CCNC2)c1` [Example 13-7, (R)-3-[(R)-(Tetrahydropyran-4-yl)(3-trifluoromethylphenoxy)methyl]pyrrolidine], for which the Ki in experiment [1] and in experiment [2] was no more than 100 nM in each case.
`FC(F)(F)c1cc(Cl)ccc1O[C@H](C1CCOCC1)[C@@H]1CCNC1` [Example 13-23, (R)-3-[(R)-(4-Chloro-2-trifluoromethylphenoxy)(tetrahydropyran-4-yl)methyl]pyrrolidine]: the values for the Ki in experiment [1] and in experiment [2] were no more than 10 nM and no more than 100 nM, respectively.
With `FC(F)(F)c1cccc(O[C@@H](C2CCOCC2)[C@H]2CCNC2)c1` [Example 13-8, (S)-3-[(S)-(Tetrahydropyran-4-yl)(3-trifluoromethylphenoxy)methyl]pyrrolidine], the Ki in experiment [1] and in experiment [2] was no more than 100 nM in each case.
Turning to `FC(F)(F)c1c(Cl)cccc1OC(C1CCOCC1)C1CCNC1` [Example 13-18, (S)-3-[(S)-(3-Chloro-2-trifluoromethylphenoxy)(tetrahydropyran-4-yl)-methy]-pyrrolidine], the values for the Ki in experiment [1] and in experiment [2] were no more than 10 nM and no more than 100 nM, respectively.
For `Fc1ccc(O[C@H](C2CCOCC2)[C@@H]2CCNC2)cc1` [Example 13-10, (R)-3-[(R)-(4-Fluorophenoxy)(tetrahydropyran-4-yl)methyl]pyrrolidine], the Ki in experiment [1] and in experiment [2] was no more than 100 nM in each case.
Regarding `COC[C@H](Oc1cccc(C(F)(F)F)c1)[C@H]1CCNC1` [Example 4-3, (S)-3-[(R)-2-Methoxy-1-(3-trifluoromethylphenoxy)ethyl]pyrrolidine], the Ki in experiment [1] and in experiment [2] was no more than 100 nM throughout.
`FC(F)(F)c1c(Cl)cccc1O[C@H](C1CCOCC1)[C@H]1CCNC1` [Example 13-19, (S)-3-[(R)-(3-Chloro-2-trifluoromethylphenoxy)(tetrahydropyran-4-yl)-methyl]-pyrrolidine]: the Ki in experiment [1] is no more than 10 nM; in experiment [2], no more than 100 nM.
Turning to `COCCC(Oc1ccc(Cl)cc1C)C1CCNC1` (single isomer, unassigned) [5 (1st peak)], the Ki in experiment [1] was no more than 10 nM; in experiment [2], no more than 100 nM.
For `Cc1c(Cl)cccc1O[C@@H](COC(C)C)[C@@H]1CCNC1` [Example 9-25, (R)-3-[(R)-1-(3-Chloro-2-methylphenoxy)-2-isopropoxyethyl]pyrrolidine], in experiment [3], the “SERT pIC50” value was “≧8.0*”. In experiment [1], the “SERT pKi” value is on record as “≧8.0”.
As to `COCC(Oc1cc(Cl)cc(Cl)c1)C1CCNC1` (stereo not drawn) [Example 4-29, 3-[1-(3,5-Dichlorophenoxy)-2-methoxyethyl]pyrrolidine], the Ki in experiment [1] is no more than 10 nM; in experiment [2], no more than 100 nM.
As for `Clc1cccc(Cl)c1O[C@H](C1CCOCC1)[C@H]1CCNC1` [Example 13-25, (S)-3-[(R)-(2,6-Dichlorophenoxy)(tetrahydropyran-4-yl)methyl]pyrrolidine], the Ki in experiment [1] and in experiment [2] was no more than 100 nM each time.
With `CC(C)OC[C@@H](Oc1cccc(F)c1Cl)[C@H]1CCNC1` [Example 9-11, (S)-3-[(S)-1-(2-Chloro-3-fluorophenoxy)-2-isopropoxyethyl]pyrrolidine], the IC50 in experiment [3] and in experiment [4] was no more than 10 nM throughout.
For `CCOC[C@H](Oc1ccc(Cl)cc1)[C@H]1CCNC1` [Example 7-4, (S)-3-[(R)-1-(4-Chlorophenoxy)-2-ethoxyethyl]pyrrolidine], the IC50 in experiment [3] and in experiment [4] was no more than 10 nM each time.
`CCOC[C@H](Oc1ccc(Cl)cc1Cl)[C@H]1CCNC1` [Example 6, (S)-3-[(R)-1-(2,4-Dichlorophenoxy)-2-ethoxyethyl]pyrrolidine]: the IC50 in experiment [3] and in experiment [4] was no more than 10 nM throughout.
`CCOC[C@H](Oc1cccc(C(F)(F)F)c1F)[C@H]1CCNC1` [Example 7-12, (S)-3-[(R)-2-Ethoxy-1-(2-fluoro-3-trifluoromethylphenoxy)ethyl]pyrrolidine]: the IC50 in experiment [3] and in experiment [4] was no more than 100 nM in each case.
